What was measured:
[1] = FRAP (Ferric reducing antioxidant power) assay
[2] = TEAC (Trolox equivalent antioxidant capacity) assay
[3] = Superoxide radical scavenging activity

Structure (SMILES)	FRAP [1]	TEAC [2]	Superoxide radical scavenging activity, EC50 [3]
O=C1O[C@H]([C@@H](O)CO)C(O)=C1O [Vitamin C, vitamin C]	6.57 ± 1.00 Mmol Fe2+/g	7.23 ± 0.28 mmol TE/g	60 ± 0 µg/mL
Cc1cc(C(C)(C)C)c(O)c(C(C)(C)C)c1 [BHT, hydroxytoluene butylate]	0.416 ± 0.020 Mmol Fe2+/g	0.467 ± 0.005 mmol TE/g	–

From patent publication US20220183952A1, “FORMULATION FOR THE TOPICAL TREATMENT OF THE SKIN AND RELATED USE” (SVAS BIOSANA SPA, priority 2018, published 2022)
